# Assay results: US12150940B2, “WASp-protecting small molecules, compositions, methods and uses thereof in the treatment of innate and acquired immune-related disorders or conditions” (BAR ILAN UNIVERSITY, priority 2016, dated 2024)
# Legend:
# N-WASp = target: T1, N-WASp (Homo sapiens, UniProt O00401); assay: MST binding, YFP-N-WASp in HEK 293T cell lysate
# T1 construct: expressed in transfected cells; host or cells: HEK 293T, transient transfection; unpurified cell lysate
# Method: Diluted cell lysates of YFP-WASp/N-WASp/WAVE2-expressing HEK 293T cells were incubated with serially-diluted (100 μM-3 nM) SMCs. The mixed lysates and SMCs were then loaded into standard-treated Monolith™ capillaries and the fluorescence of the samples was measured by the Monolith NT.115 instrument at 60% MST power. Binding curves of WASp with SMC #6 (FIG. 3A), SMC #30 (FIG. 3B), SMC #33 (FIG. 3C), SMC #34 (FIG. 3D) and Y-27632 (FIG. 3E) or of N-WASp (FIG. 3F) or WAVE2 (FIG. 3G) with SMC #34 were generated by the NanoTemper Analysis 2.231 software. Normalized fluorescence (hot fluorescence/initial fluorescence) is plotted as a function of SMC concentration. […]
# YFP-tagged WASp was obtained from cell lysates of Human Embryonic Kidney (HEK) 293T, transiently transfected with YFP-WASp/WAVE2/N-WASp by DNA-calcium phosphate co-precipitation as previously described (Reicher et al, 2012). […] After loading into the instrument (Monolith NT.115, NanoTemper), the samples were measured by standard protocols at 60% MST power. […] KD values were determined using the NanoTemper analysis software (NT Analysis 1.5.37 or 2.2.31).
# Following this in silico screening, the inventors identified eight SMCs (#6, #23, #24, #25, #30, #32, #33, #34, see Table 1). […] The SMCs that specifically bind the degradation pocket of WASp were further evaluated by the inventors.
# [1] = system: WAS−/−/WASp R86C Jurkat T-cells; assay: Lymphocyte activation (CD69, flow cytometry) in WAS−/−/WASp R86C cells; type: cell-based, human; settings: cells exclusively expressing YFP-WASp R86C, PMA and Ionomycin, vs control
# Method: 1×10^6 WASp knockout Jurkat T-cell line that expresses only exogenous YFP-WASp harboring the common human WAS and XLT mutation, R86C (WAS−/−/WASp R86C) was pretreated with either negative control or SMC #34. Cells that completely lack WASp expression (WAS^−/−) were also treated with the control. The cells were then stimulated with PMA and Ionomycin. After incubation, the cells were stained with PE-Cy5™-conjugated mouse anti-human CD69 and lymphocyte activation was measured by flow cytometry as described in Experimental procedures. Histogram of negative control versus SMC #34 is presented.
# PBMCs or Jurkat cells (about 3×10^5 cells) were incubated for 4 h, at 37° C. with 50 ng/ml PMA and 250 ng/ml lonomycin, or 40 ng/ml PMA and 6 μM Ionomycin, respectively, or left untreated. After incubation, the cells were collected and stained with 1 μg/ml anti-active human LFA-1 antibody (purified from KIM127 hybridoma sup, ATCC Cat #: CRL-2838, Sigma) for 30 min in 37° C., followed by staining with Alexa488-Fluor goat anti-mouse IgG1 secondary antibody (Molecular Probes, Cat #: A-21121), 30 min on ice. Cells were then co-stained with PE-Cy5™-conjugated mouse anti-human CD69 (BD Pharmingen, Cat #: 555532) to measure lymphocyte activation.
# T1 sequence (O00401 whole entry, species assumed): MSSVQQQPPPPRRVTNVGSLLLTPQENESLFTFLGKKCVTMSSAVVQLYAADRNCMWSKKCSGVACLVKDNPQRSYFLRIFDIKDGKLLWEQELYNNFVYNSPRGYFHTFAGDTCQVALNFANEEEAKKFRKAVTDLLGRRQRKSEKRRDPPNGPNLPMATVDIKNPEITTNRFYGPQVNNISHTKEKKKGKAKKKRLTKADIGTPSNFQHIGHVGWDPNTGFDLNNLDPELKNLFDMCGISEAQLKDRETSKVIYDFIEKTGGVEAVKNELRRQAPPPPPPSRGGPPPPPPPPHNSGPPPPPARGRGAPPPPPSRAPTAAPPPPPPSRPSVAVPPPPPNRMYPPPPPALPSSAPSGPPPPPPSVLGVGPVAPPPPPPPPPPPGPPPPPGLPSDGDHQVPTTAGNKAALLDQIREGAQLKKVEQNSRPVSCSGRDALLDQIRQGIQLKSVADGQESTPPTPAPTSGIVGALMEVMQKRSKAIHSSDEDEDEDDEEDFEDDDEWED
structure (smiles),measurement,setting,value
"CC1CCCC(C)N1C(=O)CSc1nnc(COc2cccc3cccnc23)o1 (centres unmarked) [SMC #34, 1-(2,6-dimethylpiperidin-1-yl)-2-[[5-(quinolin-8-yloxymethyl)-1,3,4-oxadiazol-2-yl]sulfanyl]ethanone]",binding to N-WASp,N-WASp,no binding
same,lymphocyte activation (CD69),[1],upregulation of lymphocyte activation
